Like-named read-outs stand apart in the source and are kept apart here.
Key:
Thrombin receptor = target: T1, Thrombin receptor (Homo sapiens, UniProt P25116); assay: In vitro Thrombin Receptor Antagonist Assay ([3H]haTRAP radioligand binding, platelet membranes); conditions: [3H]haTRAP 10 nM, read-out: IC50 (concentration at which a 50% inhibition of thrombin receptor was observed)
T1 construct: Platelet membranes were prepared using a modification of the method of Natarajan et al; tissue North Jersey Blood Center (East Orange, N.J.); host or cells: platelets (platelet concentrates), membranes
T1 sequence (P25116 22-425): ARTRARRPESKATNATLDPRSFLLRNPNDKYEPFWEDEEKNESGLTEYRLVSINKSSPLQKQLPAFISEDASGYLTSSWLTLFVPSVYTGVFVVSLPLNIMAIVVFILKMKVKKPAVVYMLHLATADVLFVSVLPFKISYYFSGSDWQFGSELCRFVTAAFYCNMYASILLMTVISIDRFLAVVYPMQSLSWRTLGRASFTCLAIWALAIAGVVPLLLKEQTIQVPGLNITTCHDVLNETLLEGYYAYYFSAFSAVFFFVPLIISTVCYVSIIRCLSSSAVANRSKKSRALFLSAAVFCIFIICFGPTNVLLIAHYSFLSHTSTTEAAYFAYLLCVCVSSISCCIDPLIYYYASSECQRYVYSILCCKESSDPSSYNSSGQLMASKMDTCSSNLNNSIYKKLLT
Method: In Vitro Testing Procedure for Thrombin Receptor Antagonists:
Preparation of [^3 H]haTRAP
The vessel was attached to the tritium line, frozen in liquid nitrogen and evacuated. […] At the completion of the reaction, the excess tritium was removed and the reacted peptide solution was diluted with DMF (0.5 ml) and filtered to remove the catalyst. The collected DMF solution of the crude peptide was diluted with water and freeze dried to remove the labile tritium. The solid peptide was redissolved in water and the freeze drying process repeated. The tritiated peptide ([^3 H]haTRAP) was dissolved in 0.5 ml of 0.1% aqueous TFA and purified by HPLC using the following conditions: column, Vydac C18, 25 cm×9.4 mm I.D.; mobile phase, (A) 0.1% TFA in water, (B) 0.1% TFA in CH3 CN; gradient, (A/B) from 100/0 to 40/60 over 30 min; flow rate, 5 ml/min; detection, UV at 215 nm.
Preparation of platelet membranes
All steps were carried out at 4° C. under approved biohazard safety conditions. Platelets were centrifuged at 100×g for 20 minutes at 4° C. to remove red cells. The supernatants were decanted and centrifuged at 3000×g for 15 minutes to pellet platelets. Platelets were resuspended in 10 mM Tris-HCl, pH 7.5,150 mM NaCl, 5 mM EDTA, to a total volume of 200 ml and centrifuged at 4400×g for 10 minutes. This step was repeated two additional times. Platelets were resuspended in 5 mM Tris-HCl, pH 7.5, 5 mM EDTA to a final volume of approximately 30 ml and were homogenized with 20 strokes in a Dounce homogenizer. Membranes were pelleted at 41,000×g, resuspended in 40-50 ml 20 mM Tris-HCl, pH 7.5,1 mM EDTA, 0.1 mM dithiothreitol, and 10 ml aliquots were frozen in liquid N2 and stored at -80° C. To complete membrane preparation, aliquots were thawed, pooled, and homogenized with 5 strokes of a Dounce homogenizer. Membranes were pelleted and washed 3 times in 10 mM triethanolamine-HCl, pH 7.4, 5 mM EDTA, and resuspended in 20-25 ml 50 mM Tris-HCl, pH 7.5, 10 mM MgCl2, 1 mM EGTA, and 1% DMSO. Aliquots of membranes were frozen in liquid N2 and stored at -80° C.
High Throughput Thrombin Receptor Radioligand Binding Assay
Stock solutions (10 mM in 100% DMSO) of test compounds were further diluted in 100% DMSO. Unless otherwise indicated, 10 μl of diluted compound solutions and 90 μl of radioligand (a final concentration of 10 nM in 5% DMSO) were added to each well, and the reaction was started by the addition of 100 μl of membranes (40 μg protein/well). […] Compounds were tested at three concentrations (0.1, 1 and 10 μM). The plates were covered and vortex-mixed gently on a Lab-Line Titer Plate Shaker for 1 hour at room temperature. Packard UniFilter GF/C filter plates were soaked for at least 1 hour in 0.1% polyethyleneimine. The incubated membranes were harvested using a Packard FilterMate Universal Harvester and were rapidly washed four times with 300 μl ice cold 50 mM Tris-HCl, pH 7.5, 10 mM MgCl2, 1 mM EGTA. MicroScint 20 scintillation cocktail (25 μl) was added to each well, and the plates were counted in a Packard TopCount Microplate Scintillation Counter. The specific binding was defined as the total binding minus the nonspecific binding observed in the presence of excess (50 μM) unlabeled haTRAP. The % inhibition by a compound of [^3 H]haTRAP binding to thrombin receptors was calculated from the following relationship: […]
A(pF-F)R(ChA)(hR)Y--NH2 and A(pF-F)R(ChA)(hR)(I2 -Y)--NH2, were custom synthesized by AnaSpec Inc. (San Jose, Calif.). […] The gas was subsequently loaded and stored on an IN/US Systems Inc. Trisorber.

[1] = system: platelet aggregation (platelets, haTRAP or thrombin); assay: In vitro Platelet Aggregation Inhibition (PAI); type: cell-based; conditions: Homo sapiens, read-out: In vitro PAI IC50
Method: In vitro Platelet Aggregation Procedure:
Blood was obtained from healthy human subjects who were aspirin free for at least 7 days by venipuncture using ACD as anticoagulant. Platelet rich plasma was prepared by centrifugation at 100×g for 15 minutes at 15 deg C. Platelets were pelleted at 3000×g and washed twice in buffered saline containing 1 mM EGTA and 20 μg/ml apyrase to inhibit aggregation. Aggregation was performed at room temperature in buffered saline supplemented with 0.2 mg/ml human fibrinogen. Test compound and platelets were preincubated in 96-well flat-bottom plates for 60 minutes. Aggregation was initiated by adding 0.3 μM haTRAP or 0.1 U/ml thrombin and rapidly vortexing the mixture using a Lab Line Titer Plate Shaker (speed 7). Percent aggregation was monitored as increasing light transmittance at 405 nm in a Spectromax Plate Reader.

[2] = system: platelet aggregation (Whole Blood, haTRAP); assay: Ex-vivo Platelet Aggregation In Cynomolgus Whole Blood; set-up: species or system cynomolgus monkey
Method: Protocol For Ex-Vivo Platelet Aggregation In Cynomolgus Whole Blood Drug administration and blood collection:
Conscious chaired cynomolgus monkeys are allowed to equilibrate for 30 min. A needle catheter is inserted into a brachial vein for infusion of test drugs. Another needle catheter is inserted into the other brachial or saphenous vein and used for blood sampling. In those experiments where the compound is administered orally only one catheter is used. A baseline blood sample (1-2 ml) is collected in vacutainer tubes containing a thrombin inhibitor CVS 2139 (100 μg/0.1 ml saline) as an anticoaculant. The drug is then infused intravenously over a period of 30 min. Blood samples (1 ml) are collected at 5, 10, 20, 30 min during and 30, 60, 90 min after termination of the drug infusion. In PO experiments the animals are dosed with the drug using a gavage cannula. Blood samples are collected at 0, 30, 60, 90, 120, 180, 240, 300, 360 min after dosing. […]
A 0.5 ml blood sample is added to 0.5 ml of saline and warmed to 37° C. in a Chronolog whole blood aggregometer. […] The agonist (haTRAP) is added by an adjustable volume pipette (5-25 μl) and the aggregation curve is recorded for 10 minutes. Maximum aggregation in 6 minutes following agonist is the value recorded.

[3] = 0.3 μM haTRAP or 0.1 U/ml thrombin, 60 min preincubation

Structure (SMILES)	IC50 (Thrombin receptor)	further results
CNC(=O)C1Cc2ccccc2C(C=Cc2ccc(-c3cccc(C(F)(F)F)c3)cn2)C1CO (stereo not shown) [Example 7]	1140 nM	–
C[C@H]1OC(=O)[C@@H]2C[C@@H]3CCCC[C@H]3[C@H](/C=C/c3ccc(-c4cccc(C(F)(F)F)c4)cn3)[C@H]12 [Example 4, (+)-(3R,3aS,4S,4aR,8aS,9aR)-Decahydro-4-[(E)-2-[5-[3-(trifluoromethyl)phenyl]-2-pyridinyl]ethenyl]-3-Methylnaphtho-[2,3-c]furan-1(3H)-one]	–	IC50 [1]: 67 nM; Ex-vivo C. Monkey Whole Blood PAI ([2]; 3 mpk, oral in betahydroxypropylcyclodextrin as cosolvent): 100%
CCc1cccc(/C=C/[C@H]2[C@@H]3CCCC[C@H]3C[C@H]3C(=O)O[C@H](C)[C@@H]23)n1 [Example 8, (+)-(3R,3aS,4S,4aR,8aS,9aR)-Decahydro-4-[(E)-2-(6-ethyl-2-pyridinyl)ethenyl]-3-methylnaphtho[2,3-c]furan-1(3H)-one]	–	IC50 [1]: 300 nM; Ex-vivo C. Monkey Whole Blood PAI ([2]; 10 mpk, i.v. infusion over 30 min. in 5% dextrose): 100%
C[C@H]1OC(=O)[C@@H]2C[C@@H]3CCCC[C@H]3[C@H](/C=C/c3ccc(-c4cccc5c4OCO5)cn3)[C@H]12 [Example 1DR]	–	IC50 [1, 3]: 100 nM
Cc1cccc(/C=C/[C@H]2[C@H]3[C@H](C)OC(=O)[C@H]3C=C3CCCC[C@@H]32)n1 [Example 2E]	350 nM	–
Cc1cc(C)nc(/C=C/[C@@H]2[C@H]3CCCC[C@@H]3C[C@@H]3C(=O)O[C@@H](C)[C@H]23)c1 [Example 1A]	1600 nM	–

Further molecules by falling IC50 (Thrombin receptor), results first:

IC50 (Thrombin receptor)	Structure (SMILES)	further results
14 nM	Cc1ccccc1-c1ccc(/C=C/[C@H]2[C@@H]3CCCC[C@H]3C[C@H]3C(=O)O[C@H](C)[C@@H]23)nc1 [Example 1DK]	–
10 nM	O=C1OCC2C1Cc1ccccc1C2C=Cc1ccc(-c2cccc(C(F)(F)F)c2)cn1 (stereo not shown) [Example 3K]	–
6 nM	C[C@H]1OC(=O)[C@@H]2C[C@@H]3CCCC[C@H]3[C@H](/C=C/c3ccc4cc(O)ccc4n3)[C@H]12 [Example 1BN]	IC50 [1, 3]: 100 to 300 nM
4 nM	C[C@H]1OC(=O)[C@@H]2C[C@@H]3CCCC[C@H]3[C@H](/C=C/c3ccc(-c4cc(C(F)(F)F)cc(C(F)(F)F)c4)cn3)[C@H]12 [Example 1ES]	–
